# From patent US12637414B2, “Arylamides and methods of use thereof” (Genzyme Corporation, priority 2019, dated 2026)
# Target: T1, human Cystic Fibrosis Transmembrane Conductance Regulator (CFTR) harboring the ΔF508 mutation (Homo sapiens, UniProt P13569, DEL508-508)
# T1 construct: expressed in transfected cells; host or cells: H441 carcinoma line (G418 selection)
# Assay: H441 cell Emax and EC50: HRP-tagged ΔF508-CFTR cell surface luminescence assay
# Assay type: cell-based
# Conditions: H441 cells expressing ΔF508-CFTR-HRP, 27° C., two nights; for EC50: 15-point dose-response, top 24.5 μM; for Emax: NCI-H441, % of maximum VX809 signal
# Text: Two cell lines were used, the H441 carcinoma line and the CFHBE41o-(41o-) human bronchial epithelial line. Both cell lines expressed human Cystic Fibrosis Transmembrane Conductance Regulator (CFTR) harboring the ΔF508 mutation and with an in-frame fusion in CFTR extracellular loop 4 of Horse Radish Peroxidase (HRP) under control of the CMV promoter. In the presence of the HRP tag, ΔF508-CFTR transported to the cell surface was detectable upon addition of an HRP substrate (Luminata Forte). Both cell types were cultivated at 37° C. with CO2.
# For both cell types, the medium was changed every other day unless the culture was at low % confluence. Cells were used for the assays at ˜75% confluence.
# To a polypropylene (PP) 384-well plate, 15 μls DMSO was added to all wells in columns 1-22 and 24 (low Control). 15 μls of 260 μM VX809 (Lumacaftor), Selleckchem S1565, was added to column 23 wells (high Control). 15 μls of 10 mM test compound or VX809 (control) were added to wells of row A. Serial dilutions of Row A compound were performed 2×15 μls in rows A through O (15-point).
# A PP, 384-well plate containing the appropriate cell culture medium was prepared for each assay plate with 100 μls per well. For the doxycycline-induced 41o-cells, doxycycline for both the assay plate and the medium dilution plate was added at 0.0005 mg/ml to the medium.
# Both cell lines were plated for the assay at 30 uls per 384-well at 3.4×10^e5 cells per ml (˜10K cells/well). H441 cells were plated on opaque, white, Corning plate 3704. 41o-cells were plated on collagen-coated opaque, white, Corning plate 356665. For 41o-cells, doxycycline was added to the medium.
# Using FX (Beckman) protocol, 10 uls diluted compound or medium was added per well to the Assay Plate as: 2 μls DMSO Dilution plate well is diluted in 100 uls of the Medium Dilution Plate well, mixed, and 10 uls is transferred to the Assay Plate.
# The final assay dilution series is 24.5, 12.3, 6.1, 3.1, 1.5, 0.8, 0.4, 0.2, 0.1, 0.05, 0.02, 0.01, 0.006, 0.003, 0.001 and 0 μM. The 41o-assay plates were incubated at 37° C. w/CO2, the H441 assay plates were incubated at 27° C. w/CO2, each overnight for two nights.
# After being brought to room temperature, the assay plate liquid was removed. 30 μls of Luminata Forte (Millipore ELLUF0100) was added per well and incubated at room temperature for 10 min. The plates were then read on a Topcount, protocol LumiMatti (CPS, luminescence). The data was analyzed for % of maximum, maximum VX809 signal, and EC50 using Pearl and SPEED tools.
# T1 sequence (P13569 with tags, fused parts or gaps DEL508-508): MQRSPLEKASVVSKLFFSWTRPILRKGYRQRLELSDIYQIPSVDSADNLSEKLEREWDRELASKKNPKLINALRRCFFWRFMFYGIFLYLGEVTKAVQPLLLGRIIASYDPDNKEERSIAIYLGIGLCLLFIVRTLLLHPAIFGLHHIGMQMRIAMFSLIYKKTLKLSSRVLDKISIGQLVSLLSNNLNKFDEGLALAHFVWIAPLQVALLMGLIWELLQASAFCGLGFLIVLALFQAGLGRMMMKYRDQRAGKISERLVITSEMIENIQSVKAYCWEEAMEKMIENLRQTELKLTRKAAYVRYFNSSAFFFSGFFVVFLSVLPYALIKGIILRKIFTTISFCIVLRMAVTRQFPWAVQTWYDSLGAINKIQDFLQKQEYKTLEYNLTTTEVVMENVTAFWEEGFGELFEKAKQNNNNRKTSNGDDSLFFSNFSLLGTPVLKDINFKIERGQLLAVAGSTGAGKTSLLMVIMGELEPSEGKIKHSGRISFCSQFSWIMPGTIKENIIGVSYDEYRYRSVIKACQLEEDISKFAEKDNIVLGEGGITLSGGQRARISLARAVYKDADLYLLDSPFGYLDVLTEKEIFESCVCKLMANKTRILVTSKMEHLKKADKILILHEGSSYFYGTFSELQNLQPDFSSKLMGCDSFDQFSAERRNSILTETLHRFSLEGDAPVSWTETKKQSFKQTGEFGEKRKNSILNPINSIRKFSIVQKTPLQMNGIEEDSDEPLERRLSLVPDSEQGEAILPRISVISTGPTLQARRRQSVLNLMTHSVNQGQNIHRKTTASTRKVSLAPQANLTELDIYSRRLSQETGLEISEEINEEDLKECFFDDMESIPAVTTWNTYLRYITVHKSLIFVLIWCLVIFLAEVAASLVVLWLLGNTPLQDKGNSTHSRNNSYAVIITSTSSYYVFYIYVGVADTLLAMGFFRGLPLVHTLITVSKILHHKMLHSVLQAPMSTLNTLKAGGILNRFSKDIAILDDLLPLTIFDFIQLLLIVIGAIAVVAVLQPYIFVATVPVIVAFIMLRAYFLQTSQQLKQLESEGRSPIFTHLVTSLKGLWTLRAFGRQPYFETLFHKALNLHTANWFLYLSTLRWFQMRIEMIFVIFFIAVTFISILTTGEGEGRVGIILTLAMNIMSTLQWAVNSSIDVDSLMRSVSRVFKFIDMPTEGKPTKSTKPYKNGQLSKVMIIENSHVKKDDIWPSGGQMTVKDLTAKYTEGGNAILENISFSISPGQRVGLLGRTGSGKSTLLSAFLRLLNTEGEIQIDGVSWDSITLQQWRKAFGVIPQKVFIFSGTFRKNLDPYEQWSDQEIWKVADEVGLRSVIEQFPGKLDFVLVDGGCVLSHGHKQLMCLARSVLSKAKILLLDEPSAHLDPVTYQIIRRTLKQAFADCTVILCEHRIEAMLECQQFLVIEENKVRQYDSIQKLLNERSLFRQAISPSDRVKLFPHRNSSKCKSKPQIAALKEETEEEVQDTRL
EC50 [µM],Emax [%],Compound
0.28,141,"O=C(N[C@H](C(=O)O)C12CC3CC(CC(C3)C1)C2)c1ccn2cccc2c1OCc1ccc(OC(F)(F)F)cc1 [compound 118, (2S)-2-(1-adamantyl)-2-[[8-[[4-(trifluoromethoxy)phenyl]methoxy]indolizine-7-carbonyl]amino]acetic acid; 2,2,2-trifluoroacetic acid]"
0.393,154,O=C(N[C@H](C(=O)O)C12CC3CC(CC(C3)C1)C2)c1ccc2ccccc2c1OCc1ccc(SC(F)(F)F)cc1 [compound 2]
1.13,141,O=C(N[C@H](C(=O)O)C12CC3CC(CC(O)(C3)C1)C2)c1ccc2ccccc2c1OCc1ccc(OC(F)(F)F)cc1 [compound 35]
–,3.8,O=C(N[C@H](C(=O)O)C12CC3CC(CC(O)(C3)C1)C2)c1ccc2cc(F)ccc2c1OCc1ccc(OC(F)(F)F)cc1 [compound 46]
3.48,87.3,O=C(N[C@H](C(=O)O)C12CC3CC(CC(O)(C3)C1)C2)c1sc2ccccc2c1OCc1ccc(OC(F)(F)F)cc1 [compound 13]
4.06,32.5,O=C(N[C@H](C(=O)O)C12CC3CC(CC(O)(C3)C1)C2)c1ccc2cc(F)ccc2c1OCC1CCC(F)(F)CC1 [compound 21]
0.244,133,"O=C(N[C@H](C(=O)O)C12CC3CC(CC(C3)C1)C2)c1ccc2occc2c1OCc1ccc(C(F)(F)F)cc1 [compound 128, (2S)-2-(1-adamantyl)-2-[[4-[[4-(trifluoromethyl)phenyl]methoxy]benzofuran-5-carbonyl]amino]acetic acid]"
0.465,119,O=C(N[C@H](C(=O)O)C12CC3CC(CC(C3)C1)C2)c1ccc2sccc2c1OCc1ccc(S(F)(F)(F)(F)F)cc1 [compound 114]
0.401,157,CC(C)OC12CC3CC(C1)CC([C@H](NC(=O)c1ccc4ccccc4c1OCc1ccc(C(F)(F)F)cc1)C(=O)O)(C3)C2 [compound 11]
0.35,204,O=C(N[C@H](C(=O)O)C12CC3CC(CC(C3)C1)C2)c1ccc2ccccc2c1OCc1ccc(Cl)c(Cl)c1 [compound 89]
0.78,144,O=C(N[C@H](C(=O)O)C12CC3CC(CC(OCCO)(C3)C1)C2)c1ccc2ccccc2c1OCc1ccc(C(F)(F)F)cc1 [compound 20]
1.01,165,CC12CC3(C)CC(C)(C1)CC(C(NC(=O)c1ccc4ccccc4c1OCC1CCC(F)(F)CC1)C(=O)O)(C2)C3 (stereo not drawn) [compound 90]
2.7,145,"O=C(N[C@H](C(=O)O)C12CC3CC(CC(C3)C1)C2)c1ccc2ccccc2c1OCC#CC1CC1 [compound 101, (2S)-2-(1-adamantyl)-2-[[1-(3-cyclopropylprop-2-ynoxy)naphthalene-2-carbonyl]amino]acetic acid]"
0.398,180,"O=C(N[C@H](C(=O)O)C12CC3CC(CC(C3)C1)C2)c1ccc2ccccc2c1OCc1ccc(C(F)(F)F)cc1 [compound 96, (2S)-2-(1-adamantyl)-2-[[1-[[4-(trifluoromethyl)phenyl]methoxy]naphthalene-2-carbonyl]amino]acetic acid]"
2.18,370,Cc1ccc2ccc(C(=O)N[C@H](C(=O)O)C34CC5CC(CC(C5)C3)C4)c(OCc3ccc(C(F)(F)F)cc3)c2c1 [compound 18]
1.58,17,"Cc1ccc2c(c1C)N(Cc1ccc(C(F)(F)F)cc1)CN([C@H](C(=O)O)C13CC4CC(CC(C4)C1)C3)C2=O [compound 136, (2S)-2-(1-adamantyl)-2-[7,8-dimethyl-4-oxo-1-[[4-(trifluoromethyl)phenyl]methyl]-2H-quinazolin-3-yl]acetic acid]"
0.153,147,O=C(N[C@H](C(=O)O)C12CC3CC(CC(Br)(C3)C1)C2)c1ccc2ccccc2c1OCc1ccc(C(F)(F)F)cc1 [compound 54]
1.86,97.4,O=C(N[C@H](C(=O)O)C12CC3CC(CC(C3)C1)C2)c1ccc2ccccc2c1OC[C@H]1CC[C@@H](C(F)(F)F)CC1 [compound 70]

EC50 [µM],Emax [%],Compound
0.915,257,O=C(N[C@H](C(=O)O)C12CC3CC(CC(C3)C1)C2)c1sc2ccccc2c1OCC1CCCCC1 [compound 94]
1.76,121,"O=C(N[C@H](C(=O)O)C12CC3CC(CC(O)(C3)C1)C2)c1ccc2sccc2c1OCc1ccc(OC(F)(F)F)cc1 [compound 109, (2S)-2-(3-hydroxy-1-adamantyl)-2-[[4-[[4-(trifluoromethoxy)phenyl]methoxy]benzothiophene-5-carbonyl]amino]acetic acid]"
0.449,148,O=C(N[C@H](C(=O)O)C12CC3CC(CC(C3)C1)C2)c1ccc2ccccc2c1OCc1ccc(S(F)(F)(F)(F)F)cc1 [compound 47]
1.4,21.7,"O=C(N[C@H](C(=O)O)C12CC3CC(CC(O)(C3)C1)C2)c1ccc2ccccc2c1NCc1ccc(SC(F)(F)F)cc1 [compound 131, (2S)-2-(3-hydroxy-1-adamantyl)-2-[[1-[[4-(trifluoromethylsulfanyl)phenyl]methylamino]naphthalene-2-carbonyl]amino]acetic acid]"
0.206,176,O=C(N[C@H](C(=O)O)C12CC3CC(CC(C3)C1)C2)c1ccc2c(F)cccc2c1OCc1ccc(C(F)(F)F)cc1 [compound 1]
0.308,194,O=C(N[C@H](C(=O)O)C12CC3CC(CC(C3)C1)C2)c1ccc2cccnc2c1OCc1ccc(Cl)c(Cl)c1 [compound 31]
11.4,78.4,"O=C(N[C@H](C(=O)O)C12CC3CC(CC(O)(C3)C1)C2)c1ccc2sccc2c1OCC1CCC(F)(F)CC1 [compound 108, (2S)-2-[[4-[(4,4-difluorocyclohexyl)methoxy]benzothiophene-5-carbonyl]amino]-2-(3-hydroxy-1-adamantyl)acetic acid]"
15.8,30.1,CS(=O)(=O)c1ccc(COc2c(C(=O)N[C@H](C(=O)O)C34CC5CC(CC(C5)C3)C4)ccc3ccccc23)cc1 [compound 58]
≥ 24.5,29.9,COC(=O)[C@@H](NC(=O)c1ccc2ccccc2c1OCc1ccc(C(F)(F)F)cc1)C12CC3CC(CC(O)(C3)C1)C2 [compound 14]
0.228,54.9,C=COc1ccc2c(OCc3ccc(C(F)(F)F)cc3)c(C(=O)N[C@H](C(=O)O)C34CC5CC(CC(C5)C3)C4)ccc2c1 [compound 63]
1.32,118,O=C(N[C@H](C(=O)O)C12CC3CC(CC(C3)C1)C2)c1ccc2ccccc2c1OCc1ccc([N+](=O)[O-])cc1 [compound 73]
0.236,89.7,O=C(N[C@H](C(=O)O)C12CC3CC(CC(C3)C1)C2)c1ccc2cc(F)ccc2c1OCc1ccc(S(F)(F)(F)(F)F)cc1 [compound 56]
0.212,196,CC12CC3(C)CC(C)(C1)CC(C(NC(=O)c1ccc4ccccc4c1OCc1ccc(C(F)(F)C(F)(F)F)cc1)C(=O)O)(C2)C3 (stereo not drawn) [compound 76]
1.38,84.2,CC(=O)COC12CC3CC(C1)CC([C@H](NC(=O)c1ccc4cc(F)ccc4c1OCc1ccc(C(F)(F)F)cc1)C(=O)O)(C3)C2 [compound 66]
1.45,96.8,O=C(N[C@H](C(=O)O)C12CC3CC(CC(O)(C3)C1)C2)c1ccc2ccccc2c1OCC1CCCCC1 [compound 30]
0.908,108,O=C(N[C@H](C(=O)O)C12CC3CC(CC(C3)C1)C2)c1sc2ccccc2c1OCc1ccc(OC(F)(F)F)cc1 [compound 93]
0.078,184,"O=C(N[C@H](C(=O)O)[C@]12C[C@H]3C[C@](O)(C[C@](Cl)(C3)C1)C2)c1ccc2ccccc2c1OCc1ccc(OC(F)(F)F)cc1 [compound 80, (S)-2-((1S,3S,5R,7S)-3-chloro-5-hydroxyadamantan-1-yl)-2-(1-((4-(trifluoromethoxy)benzyl)oxy)-2-naphthamido)acetic acid]"
